According to PMC8156256, “Use of Half-Generation PAMAM Dendrimers (G0.5–G3.5) with Carboxylate End-Groups to Improve the DACHPtCl2 and 5-FU Efficacy as Anticancer Drugs” (Molecules, 2021):
Where two headings read alike, the source gives them in different places.

Columns and labels:
[1] = test system: CACO-2 colorectal adenocarcinoma cells; experiment: MTT cytotoxicity assay, CACO-2; type: cell-based, human; conditions: for 5-FU loaded systems MW includes the estimated number of 5-FU molecules, read-out: CACO-2 IC50 ± SD
Description: All cell lines were cultured in 96-well plates at a seeding density of 1 × 10^4 cells per well with a specific culture medium supplemented with 10% (v/v) fetal bovine serum (FBS) and 1% (v/v) antibiotic–antimycotic solution (AA, 100× solution) at 37 °C, in a humidified atmosphere and 5% CO2. […] After 24 h in culture, cells were incubated with the compounds under testing prepared in nuclease-free water. In all cases, 100 µL of the compound solution was used for a total volume of 200 µL in the well. The metallodendrimers cytotoxicity was evaluated using all the mentioned cell lines at the concentrations of 0.01, 0.03, 0.1, 0.5, 1, 2.5, 5, and 10 µM. Pristine anionic PAMAM dendrimers (G0.5–3.5) were used as controls. The cytotoxicity of the metallodendrimer G2.5COO(DACHPt)16/5-FU was evaluated using A2780CisR, and CACO-2 cells at the concentrations of 0.01, 0.2, 1, 5, 10 and 20 µg/mL, and G2.5(COONa)32/5-FU and free 5-FU were used as controls. After 72 h of incubation with the compounds under testing, the culture medium was replaced by new culture medium containing 10% (v/v) of a MTT (3-(4,5-dimethylthiazol-2-yl)-2,5-diphenyltetrazolium bromide) solution (0.5 mg/mL). After 3 h of incubation, the culture medium was aspirated, and the formed formazan crystals were dissolved in 100 µL of DMSO. […] Three independent experiments with three replicas each were carried out.

red blood cells = experiment: Hemotoxicity (hemolysis) assay, cyanmethemoglobin method; type: cell-based; conditions: human blood; for hemolysis percentage (release of hemoglobin): 3 h, 37 °C, 5 µM
Description: Human blood from healthy donors was collected in tubes containing EDTA and used to evaluate the compounds’ hemotoxicity under testing towards red blood cells by the cyanmethemoglobin method. The total hemoglobin concentration in the original blood was determined starting from a 250-fold dilution of blood in cyanmethemoglobin reagent (the C reagent was prepared in an amber bottle with 50 mg of potassium ferricyanide, 12.5 mg of potassium cyanide, and 35 mg of potassium dihydrogen phosphate in 250 mL of distilled water with 250 µL of Triton-X; its pH was adjusted to 7.4). A standard curve for hemoglobin was then prepared with hemoglobin from bovine blood (Figure S34). Briefly, a stock solution of the protein (1.5 mg/mL) was first prepared in C reagent, from which serial dilutions were performed to obtain standards of known concentration (in the range 0.20 to 1.4 mg/mL). Absorbance was then measured at 550 nm, and the C reagent was used as blank. The total hemoglobin concentration was determined using this standard curve, taking into consideration the initial dilution. For hemotoxicity evaluation of the compounds under testing, a 10% (v/v) blood solution was prepared in PBS (Mg^2+/Ca^2+ free). Then, 10 µL of this blood solution was added to several microtubes containing 70 µL of compound solution (at the concentrations 0.1, 1, and 5 µM); for controls, microtubes with 70 µL of distilled water (positive control) and 70 µL of PBS (negative control) were also prepared. After, the microtubes were incubated at 37 °C for 3 h and subsequently centrifuged at 3800 rpm for 10 min. In the end, 40 µL of each supernatant were transferred to 96-well plates, 160 µL of C reagent was added, and absorbance was measured at 550 nm. The concentration of hemoglobin in the supernatants was then determined using the same standard curve and considering the performed dilutions. The results are presented as a percentage of hemolysis (mean of three independent assays) ± standard deviation (SD). A Perkin Elmer VICTOR^3™ Multilabel Reader spectrophotometer was used in this assay.

[2] = test system: A2780CisR cisplatin-resistant ovarian cancer cells; experiment: MTT cytotoxicity assay, A2780cisR; type: cell-based, human; conditions: for IC50: MTT, 72 h, for 5-FU loaded systems MW includes the estimated number of 5-FU molecules, read-out: A2780cisR IC50 ± SD; for Resistance Factor (Rf): IC50 A2780CisR / IC50 A2780
Description: (§1) Several human cell lines were used in the cytotoxicity evaluation studies, namely: ovarian cancer cells (A2780), cisplatin-resistant ovarian cancer cells (A2780CisR), breast cancer cells (MCF-7), colorectal adenocarcinoma cells (CACO-2), and fibroblast cells (BJ, a non-cancer cell line). All cell lines were cultured in 96-well plates at a seeding density of 1 × 10^4 cells per well with a specific culture medium supplemented with 10% (v/v) fetal bovine serum (FBS) and 1% (v/v) antibiotic–antimycotic solution (AA, 100× solution) at 37 °C, in a humidified atmosphere and 5% CO2. Specific cell culture media were as follows: the A2780 and A2780CisR cell lines were cultured in RPMI 1640 medium supplemented with L-glutamine (2 mM), and 1% (w/v) of cisplatin (100 mM) in the case of A2780CisR cells (cisplatin was only used in the subculturing process before the cytotoxicity assays); the MCF-7 cell line was cultured in RPMI 1640 medium supplemented with 1 mM sodium pyruvate, 1% (v/v) nonessential amino acids (NEAA, 100× solution), and human insulin 3.3 µg/mL; the CACO-2 cell line was cultured in MEM medium supplemented with 1% (v/v) NEAA; the BJ cell line was cultured in D-MEM medium. After 24 h in culture, cells were incubated with the compounds under testing prepared in nuclease-free water. In all cases, 100 µL of the compound solution was used for a total volume of 200 µL in the well. The metallodendrimers cytotoxicity was evaluated using all the mentioned cell lines at the concentrations of 0.01, 0.03, 0.1, 0.5, 1, 2.5, 5, and 10 µM. Pristine anionic PAMAM dendrimers (G0.5–3.5) were used as controls. The cytotoxicity of the metallodendrimer G2.5COO(DACHPt)16/5-FU was evaluated using A2780CisR, and CACO-2 cells at the concentrations of 0.01, 0.2, 1, 5, 10 and 20 µg/mL, and G2.5(COONa)32/5-FU and free 5-FU were used as controls. After 72 h of incubation with the compounds under testing, the culture medium was replaced by new culture medium containing 10% (v/v) of a MTT (3-(4,5-dimethylthiazol-2-yl)-2,5-diphenyltetrazolium bromide) solution (0.5 mg/mL). After 3 h of incubation, the culture medium was aspirated, and the formed formazan crystals were dissolved in 100 µL of DMSO. Absorbance intensity was measured at 550 nm in a microplate reader (Victor3 1420, Perkin Elmer, Waltham, MA, USA). Three independent experiments with three replicas each were carried out. The concentration that inhibited 50% of the cellular metabolic activity (IC50) was determined by linear interpolation between the two experimental points closer to the point correspondent to 50% of the control’s cellular metabolic activity. Results are presented as the mean ± standard deviation (SD).

[3] = test system: MCF-7 breast cancer cells; experiment: MTT cytotoxicity assay, MCF-7; type: cell-based, human; conditions: for IC50: MTT, 72 h, read-out: MCF-7 IC50 ± SD
Description: as §1

calf thymus DNA (CT-DNA) = experiment: DNA binding study by UV-vis spectroscopy (Benesi-Hildebrand); conditions: increasing CT-DNA 0-50 µM, 5 mM Tris-HCl/50 mM NaCl pH 7.4, 5 min incubation
Description: The stock solutions of DNA were directly prepared in this buffer. DNA purity was assessed by UV–vis spectroscopy using the absorbance values ratio at 260 nm and 280 nm (it should be between 1.8–1.9 to make sure it is sufficiently protein-free). […] The compounds and the CT-DNA were incubated for 5 min at room temperature. The absorbance was measured in a PerkinElmer UV–vis spectrometer Lambda equipment, using the buffer as blank. […] The intrinsic binding constant, Kb, of the compounds with DNA, was determined using the Benesi–Hildebrand equation [36]: A0/(A−A0) = εG/(εH-G − εG) + εG/(εH-G − εG) × 1/(Kb[DNA]), where Kb is the binding constant, [DNA] is the DNA concentration, A0 and A are the absorbance values of the free compound and compound–DNA complex, and εG and εH-G are their absorption coefficients, respectively. Binding constant values were then obtained from the ratio of the y-intercept to the slope in the plots A0/A−A0 vs. 1/[DNA]. Additionally, the Gibbs free energy (ΔG) associated with the process of DNA binding was calculated using the usual equation: ∆G = −RTlnKb, where T is the temperature in Kelvin and R the gas constant.

[4] = test system: A2780 ovarian cancer cells; experiment: MTT cytotoxicity assay, A2780; type: cell-based, human; conditions: for IC50: MTT, 72 h, read-out: A2780 IC50 ± SD
Description: as §1

[5] = test system: BJ fibroblast cells (non-cancer cell line); experiment: MTT cytotoxicity assay, BJ; type: cell-based, human; conditions: 72 h, read-out: BJ IC50 ± SD
Description: Several human cell lines were used in the cytotoxicity evaluation studies, namely: ovarian cancer cells (A2780), cisplatin-resistant ovarian cancer cells (A2780CisR), breast cancer cells (MCF-7), colorectal adenocarcinoma cells (CACO-2), and fibroblast cells (BJ, a non-cancer cell line). All cell lines were cultured in 96-well plates at a seeding density of 1 × 10^4 cells per well with a specific culture medium supplemented with 10% (v/v) fetal bovine serum (FBS) and 1% (v/v) antibiotic–antimycotic solution (AA, 100× solution) at 37 °C, in a humidified atmosphere and 5% CO2. […] The metallodendrimers cytotoxicity was evaluated using all the mentioned cell lines at the concentrations of 0.01, 0.03, 0.1, 0.5, 1, 2.5, 5, and 10 µM. […] The cytotoxicity of the metallodendrimer G2.5COO(DACHPt)16/5-FU was evaluated using A2780CisR, and CACO-2 cells at the concentrations of 0.01, 0.2, 1, 5, 10 and 20 µg/mL, and G2.5(COONa)32/5-FU and free 5-FU were used as controls. […] Absorbance intensity was measured at 550 nm in a microplate reader (Victor3 1420, Perkin Elmer, Waltham, MA, USA). […]

[6] = IC50 oxaliplatin / IC50 compound

Compound | IC50 ([1]; Homo sapiens, Caco-2, 72 h) [µM] | hemolysis at 3 h (red blood cells; concentrations 0.1 and 1 µg/mL) [%] | IC50 ([2]; Homo sapiens, A2780cisR) [µM] | IC50 [3] [µM] | Change in Absorbance (calf thymus DNA (CT-DNA)) | IC50 [4] [µM] | hemolysis percentage (release of hemoglobin) (red blood cells) | Resistance Factor (Rf) [2] | IC50 [2] [µM] | IC50 [5] [µM] | IC50 ([1]; 72 h) [µM] | Selectivity Index (SI) MCF-7 ([3]; IC50 BJ / IC50 MCF-7) | Relative Potency (RP) MCF-7 [3, 6] | Selectivity Index (SI) A2780 ([4]; IC50 BJ / IC50 A2780) | Relative Potency (RP) A2780 [4, 6] | Selectivity Index (SI) A2780CisR ([2]; IC50 BJ / IC50 A2780CisR) | Relative Potency (RP) A2780CisR [2, 6]
O=c1[nH]cc(F)c(=O)[nH]1 [5-FU, 5-fluoro-1H-pyrimidine-2,4-dione] | > 154 | ~5 | > 154 | – | – | – | – | – | – | – | – | – | – | – | – | – | –
O=C1[O][Pt]2([NH][C@@H]3CCCC[C@H]3[NH]2)[O]C1=O [Oxaliplatin, [(1R,2R)-cyclohexane-1,2-diamine] (ethanedioato-O,O′)platinum(II)] | – | – | – | > 10 | Hyperchromism | 0.48 ± 0.03 | around 12% | 7.2 | 3.5 ± 0.5 | > 10 | – | – | – | – | – | – | –
trans-(R,R)-1,2-diaminocyclohexanedichloroplatinum(II) [DACHPtCl2] | – | – | – | 5 ± 2 | Hyperchromism | 0.3 ± 0.2 | 7–10% | 6.2 | 1.7 ± 0.4 | > 9 | > 10 | >1.7 | >1.9 | >32 | 1.7 | >5.2 | 2
